Experimental data taken from patent US10829458B2 (Araxes Pharma LLC, priority 2015, dated 2020).

Target: T1, KRAS G12C 1-169, his-tagged protein, GDP-loaded (Homo sapiens, UniProt P01116, G12C)
T1 construct: KRAS G12C 1-169, his-tagged protein, GDP-loaded
Assay: Biochemical assay: covalent modification of KRAS G12C measured by mass spectrometry (RapidFire/TOF or Q-Exactive)
Conditions: covalent binding to KRAS G12C
Experimental: Test compounds were prepared as 10 mM stock solutions in DMSO (Fisher cat #BP-231-100). KRAS G12C 1-169, his-tagged protein, GDP-loaded was diluted to 2 μm in buffer (20 mM Hepes, 150 mM NaCl, 1 mM MgCl2). Compounds were tested for activity as follows:
Compounds were diluted to 50× final test concentration in DMSO in 96-well storage plates. Compound stock solutions were vortexed before use and observed carefully for any sign of precipitation. Dilutions were as follow: • For 100 μM final compound concentration, compounds were diluted to 5000 μM (5 μl 10 mM compound stock+5 μl DMSO and mixed well by pipetting. • For 30 μM final compound concentration, compounds were diluted to 1500 μM (3 μl 10 mM compound stock+17p DMSO) and mixed well by pipetting. • For 10 μM final compound concentration, compounds were diluted to 500 μM (2 μl 10 mM compound stock+38p DMSO) and mixed well by pipetting. 49p of the stock protein solution was added to each well of a 96-well PCR plate (Fisher cat #1423027). 1 μl of the diluted 50× compounds were added to appropriate wells in the PCR plate using 12-channel pipettor. Reactions were mixed carefully and thoroughly by pipetting up/down with a 200·1 multi-channel pipettor. The plate was sealed well with aluminum plate seal, and stored in drawer at room temperature for 30 min, 2 hour or 24 hrs. 5·1 of 2% formic acid (Fisher cat #A117) in DI H2O was then added to each well followed by mixing with a pipette. The plate was then resealed with aluminum seal and stored on dry ice until analyzed as described below.
The above described assays were analyzed by mass spectrometry according to one of the following two procedures:
The MS instrument is set to positive polarity, 2 GHz resolution, and low mass (1700) mode and allowed to equilibrate for 30 minutes. The instrument is then calibrated, switched to acquisition mode and the appropriate method loaded.
After another 30 minute equilibration time, a blank batch (i.e., buffer) is run to ensure equipment is operating properly. The samples are thawed at 37° C. for 10 minutes, briefly centrifuged, and transfer to the bench top. Wells A1 and H12 are spiked with 1 uL 500 uM internal standard peptide, and the plates centrifuged at 2000×g for 5 minutes. The method is then run and masses of each individual well recorded.
The masses (for which integration data is desired) for each well are pasted into the platemap and exported from the analysis. Masses for the internal standards are exported as well. The data at 50 ppm is extracted for the +19 charge state, and identity of well A1 is assigned using the internal standard spike and integrated. Peak data is exported as a TOF list and the above steps are repeated individually, for the +20, 21, 22, 23, 24, and 25 charge states.
The masses and peak intensities of KRAS G12C protein species were measured using a Dionex RSLCnano system (Thermo Scientific) connected to a Q Exactive Plus mass spectrometer (Thermo Scientific).
[…] of sample was each loaded onto a Aeris™ 3.6 μm WIDEPORE C4 200 Å, LC Column 50×2.1 mm column maintained at 40° C. at a flow rate of 600 μl min^−1 with […] (0.1% formic acid in acetonitrile). The liquid chromatography conditions were 20% solvent B for 1 min, 20% to 60% solvent B for 1.5 min, 60% to 90% solvent for 0.5 min, 90% solvent B for 0.2 min, 90% to 20% solvent B for 0.2 min, and then equilibrated for 1.6 min before the following sample injection. The flow rate was maintained at 600 μl min^−1 throughout the sample analysis.
The mass spectrometer was operated in profile mode at a resolution of 17500, 5 microscans, using 50 msec max injection time and an AGC target of 1e6, and a full mass range from 800-1850 m/z was recorded. The HCD trapping gas was optimized for maximum sensitivity for intact proteins. […]

Compound | Binding % (compounds of structure (I)) | Binding % (compounds of structure (III))
C=CC(=O)N1CCN(c2nc(N3CC(N4CCN(C5CC5)CC4)C3)nc3c(F)c(-c4c(C)ccc5[nH]ncc45)c(Cl)cc23)CC1 [Example I-176, 1-(4-(6-chloro-2-(3-(4-cyclopropyl-piperazin-1-yl)azetidin-1-yl)-8-fluoro-7-(5-methyl-1H-indazol-4-yl)quinazolin-4-yl)piperazin-1-yl) prop-2-en-1-one] | ++ (++ indicates binding activity from 50 to 90%) | 
C=CC(=O)N1CCN(c2nc(NCC3CCN(C4CC4)CC3)nc3c(F)c(-c4c(O)cccc4F)c(Cl)cc23)CC1 [Example I-150, 1-(4-(6-chloro-2-((1-cyclopropyl-piperidin-4-yl)methylamino)-8-fluoro-7-(2-fluoro-6-hydroxyphenyl)quinazolin-4-yl)piperazin-1-yl) prop-2-en-1-one] | +++ (+++ indicates binding activity greater than 90%) | 
C=CC(=O)N1CCN(c2nc(OCCN3CCCC3=O)nc3c(F)c(-c4c(O)cccc4F)c(Cl)cc23)CC1 [Example I-16, 1-(2-(4-(4-acryloyl-piperazin-1-yl)-6-chloro-8-fluoro-7-(2-fluoro-6-hydroxyphenyl)quinazolin-2-yloxy)ethyl) pyrrolidin-2-one] | +++ (+++ indicates binding activity greater than 90%) | 
C=CC(=O)N1CCN(c2nc(OCCN3CCC(F)(F)CC3)nc3c(F)c(-c4c(O)cccc4F)c(Cl)cc23)CC1 [Example I-38, 1-(4-(6-chloro-2-(2-(4,4-difluoro-piperidin-1-yl)ethoxy)-8-fluoro-7-(2-fluoro-6-hydroxyphenyl)quinazolin-4-yl)piperazin-1-yl) prop-2-en-1-one] | +++ (+++ indicates binding activity greater than 90%) | 
C=CC(=O)N1CCN(c2nc(NC3CCS(=O)(=O)CC3)nc3c(F)c(-c4c(O)cccc4F)c(Cl)cc23)CC1 [Example I-66, 1-(4-(6-chloro-8-fluoro-7-(2-fluoro-6-hydroxyphenyl)-2-(tetrahydro-2H-dioxothio-pyran-4-ylamino)quinazolin-4-yl)piperazin-1-yl) prop-2-en-1-one] | +++ (+++ indicates binding activity greater than 90%) | 
C=CC(=O)N1CCN(c2ncnc3c(F)c(-c4c(O)cccc4F)c(Cl)cc23)C2(CC2)C1 [III-31, 1-(4-(6-chloro-8-fluoro-7-(2-fluoro-6-hydroxy-phenyl)quinazolin-4-yl)-4,7-diazaspiro [2.5]octan-7-yl)prop-2-en-1-one] |  | + (+ indicates binding activity up to 50%)
C=CC(=O)N1CCN(c2nc(OCCN3CCC(F)(F)C3)nc3c(F)c(-c4c(C)ccc5[nH]ncc45)c(Cl)cc23)CC1 [Example I-146, 1-(4-(6-chloro-2-(2-(3,3-difluoro-pyrrolidin-1-yl)ethoxy)-8-fluoro-7-(5-methyl-1H-indazol-4-yl)quinazolin-4-yl)piperazin-1-yl) prop-2-en-1-one] | +++ (+++ indicates binding activity greater than 90%) | 
C=CC(=O)N1CCN(c2nc(OCCc3ccccn3)nc3c(F)c(-c4cc(OC)cc5ccccc45)c(Cl)cc23)CC1 [Example I-54, 1-(4-(6-chloro-8-fluoro-7-(3-methoxy-naphthalen-1-yl)-2-(2-(pyridin-2-yl)ethoxy)quinazolin-4-yl)piperazin-1-yl)prop-2-en-1-one] | + (+ indicates binding activity up to 50%) | 
C=CC(=O)N1[C@H](C)CN(c2ncnc3c(F)c(-c4cc(O)cc5ccccc45)c(Cl)cc23)C[C@@H]1C [III-27, 1-((2S,6R)-4-(6-chloro-8-fluoro-7-(3-hydroxy-naphthalen-1-yl)quinazolin-4-yl)-2,6-dimethyl-piperazin-1-yl)prop-2-en-1-one] |  | +++ (+++ indicates binding activity greater than 90%)
C=CC(=O)N1CCN(c2nc(NC3CCN(C4CC4)CC3)nc3c(F)c(-c4c(C)cccc4O)c(Cl)cc23)CC1 [Example I-80, 1-(4-(6-chloro-2-(1-cyclopropyl-piperidin-4-ylamino)-8-fluoro-7-(2-hydroxy-6-methylphenyl)quinazolin-4-yl)piperazin-1-yl) prop-2-en-1-one] | +++ (+++ indicates binding activity greater than 90%) | 
C=CC(=O)N1CCN(c2nc(NC3CCCN(CC(F)(F)F)C3)nc3c(F)c(-c4c(O)cccc4F)c(Cl)cc23)CC1 (stereo not drawn) [Example I-133, 1-(4-(6-chloro-8-fluoro-7-(2-fluoro-6-hydroxyphenyl)-2-(1-(2,2,2-trifluoroethyl)piperidin-3-ylamino)quinazolin-4-yl)piperazin-1-yl) prop-2-en-1-one] | ++ (++ indicates binding activity from 50 to 90%) | 
C=CC(=O)N1CCN(c2nc(OCC(F)(F)c3ccccn3)nc3c(F)c(-c4c(O)cccc4F)c(Cl)cc23)CC1 [Example I-124, 1-(4-(6-chloro-2-(2,2-difluoro-2-(pyridin-2-yl)ethoxy)-8-fluoro-7-(2-fluoro-6-hydroxyphenyl)quinazolin-4-yl)piperazin-1-yl) prop-2-en-1-one] | +++ (+++ indicates binding activity greater than 90%) | 
C=CC(=O)N1CCN(c2nc(N3CC4(CCOC4)C3)nc3c(F)c(-c4c(C)ccc5[nH]ncc45)c(Cl)cc23)CC1 [Example I-156, 1-(4-(6-chloro-8-fluoro-7-(5-methyl-1H-indazol-4-yl)-2-(6-oxa-2-azaspiro[3,4]octan-2-yl)quinazolin-4-yl)piperazin-1-yl) prop-2-en-1-one] | +++ (+++ indicates binding activity greater than 90%) | 
C=CC(=O)N1CCN(c2nc(Oc3cn[nH]c3)nc3c(F)c(-c4c(O)cccc4F)c(Cl)cc23)CC1 [Example I-64, 1-(4-(2-(1H-pyrazol-4-yloxy)-6-chloro-8-fluoro-7-(2-fluoro-6-hydroxyphenyl)quinazolin-4-yl)piperazin-1-yl) prop-2-en-1-one] | +++ (+++ indicates binding activity greater than 90%) | 
C=CC(=O)N1CCN(c2nc(NC3CCN(C4CC4)CC3)nc3c(F)c(-c4c(C)ccc5cn[nH]c45)c(Cl)cc23)CC1 [Example I-196, 1-(4-(6-chloro-2-((1-cyclo-propylpiperidin-4-yl)amino)-8-fluoro-7-(6-methyl-1H-indazol-7-yl)quinazolin-4-yl)piperazin-1-yl) prop-2-en-1-one] | ++ (++ indicates binding activity from 50 to 90%) | 
C=CC(=O)N1CCN(c2nc(OCC3CN(c4ncccc4F)C3)nc3c(F)c(-c4c(C)ccc5[nH]ncc45)c(Cl)cc23)CC1 [Example I-158, 1-(4-(6-chloro-8-fluoro-2-((1-(3-fluoropyridin-2-yl)azetidin-3-yl)methoxy)-7-(5-methyl-1H-indazol-4-yl)quinazolin-4-yl)piperazin-1-yl) prop-2-en-1-one] | +++ (+++ indicates binding activity greater than 90%) | 
C=CC(=O)N1CCN(c2nc(NC(=O)c3ccnc(C)c3)nc3c(F)c(-c4c(O)cccc4F)c(Cl)cc23)CC1 [Example I-181, N-(4-(4-acryloyl-piperazin-1-yl)-6-chloro-8-fluoro-7-(2-fluoro-6-hydroxyphenyl)quinazolin-2-yl)-2-methyliso-nicotinamide] | + (+ indicates binding activity up to 50%) | 
C=CC(=O)N1CCN(c2nc(OCCc3ccccn3)nc3c(F)c(-c4c(O)cccc4F)c(Cl)cc23)CC1 [Example I-45, 1-(4-(6-chloro-8-fluoro-7-(2-fluoro-6-hydroxyphenyl)-2-(2-(pyridin-2-yl)ethoxy)quinazolin-4-yl)piperazin-1-yl)prop-2-en-1-one] | +++ (+++ indicates binding activity greater than 90%) | 
